Molecular target: T1, MKK7 (Homo sapiens, UniProt O14733)
T1 construct: gene MAP2K7
Assay: biochemical

T1 sequence (O14733 2-419): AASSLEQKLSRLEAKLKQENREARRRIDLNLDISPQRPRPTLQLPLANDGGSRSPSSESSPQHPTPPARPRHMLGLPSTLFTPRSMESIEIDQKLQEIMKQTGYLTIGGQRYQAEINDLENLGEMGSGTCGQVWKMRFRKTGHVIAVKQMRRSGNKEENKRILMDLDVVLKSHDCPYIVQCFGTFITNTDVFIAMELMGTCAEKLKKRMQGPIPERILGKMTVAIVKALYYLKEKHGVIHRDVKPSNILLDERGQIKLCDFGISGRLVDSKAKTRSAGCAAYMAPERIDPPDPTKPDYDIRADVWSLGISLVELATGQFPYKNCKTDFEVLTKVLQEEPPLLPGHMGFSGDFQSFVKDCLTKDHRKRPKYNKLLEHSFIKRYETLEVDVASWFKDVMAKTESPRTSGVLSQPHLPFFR

Molecule `COc1ccc2c(Cc3ccc(O[Si](C)(C)C(C)(C)C)cc3)c3[n+](cc2c1OC)CCc1cc2c(cc1-3)OCO2` [HWY336] has an IC50 of 10 µM.
